# Data reported in US5986136A, “Photolabeling reagent” (President and Fellows of Harvard College, priority 1998, dated 1999).
# Entries after “also recorded” stand apart in the source; their conditions may differ.
# How the values were obtained:
# [1] = molecular target: anti-substance P antibody; assay: Radioimmunoassay: displacement of [^125 I]BHSP from anti-substance P antibody; format: binding; settings: for IC50: antibody dilution 1/160,000, [^125 I]BHSP 3.3 pM, 4° C. overnight, mean±standard deviation of ≥3 experiments
# SPR in P388D1 cells [2] = molecular target: T1, SPR in P388D1 cells (Mus musculus, UniProt P30548); format: binding, murine
# T1 construct: a nontransfected murine macrophage/monocyte cell line; endogenous in cells; host or cells: P388D1 (murine macrophage/monocyte cell line)
# T1 sequence (P30548 whole entry, one chain of several): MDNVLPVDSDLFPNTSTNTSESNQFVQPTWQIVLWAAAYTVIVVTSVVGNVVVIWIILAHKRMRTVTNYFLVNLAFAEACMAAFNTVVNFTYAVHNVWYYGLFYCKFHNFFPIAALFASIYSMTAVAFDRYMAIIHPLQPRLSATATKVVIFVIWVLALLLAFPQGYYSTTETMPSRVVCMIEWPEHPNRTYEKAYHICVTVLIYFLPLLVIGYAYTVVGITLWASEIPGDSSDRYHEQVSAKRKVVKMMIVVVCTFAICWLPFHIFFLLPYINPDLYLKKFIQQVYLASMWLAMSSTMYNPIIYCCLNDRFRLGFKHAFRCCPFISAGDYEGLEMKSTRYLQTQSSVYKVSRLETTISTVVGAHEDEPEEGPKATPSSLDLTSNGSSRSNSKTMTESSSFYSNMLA
# Description: Percentage of tracer bound was determined by solubilization and counting after washing away excess unbound tracer. […] The data shown is the average of four experiments containing triplicate samples in each. IC50 is expressed as the mean±standard deviation of ≥4 experiments.
# Protease inhibitors (0.004% bacitracin, 0.0002% chymostatin, 0.0004% leupeptin) and 0.1% BSA was added to the confluent cells (approximately 1×10^6 cells/well in DMEM and 10% FBS) and incubated for 30 min at room temperature (25° C.). The cells were then washed twice (0.5 ml/well) with ice-cold buffer (DMEM+20 mM HEPES, pH 7.2) and incubated with 0.5 ml of buffer on ice for at least 10 min in the presence of protease inhibitors and 0.1% BSA. […] After incubation, the cells were washed twice with 0.5 ml/well phosphate-buffered saline (104 mM NaCl, 2.7 mM KCl, 10 mM Na2 HPO4, 1.8 mM KH2 PO4, pH 7.2), then solubilized by 0.5 ml lysis buffer (1% Nonidet P-40, 0.2% SDS, 150 mM NaCl, 50 mM Tris, pH 8.0) for 20 min and transferred for gamma counting. […] Curve fitting was performed as described above.
# SPR in P388D1 cells [3] = molecular target: T1, SPR in P388D1 cells; assay: Photoaffinity labeling of SPR in P388D1 cells; format: binding, murine; settings: presence of excess unlabeled SP or CP-96,345
# Description: P388D1 cells (5×10^6 cells/5 ml) were inoculated on FBS-pretreated dishes (60 mm) in DMEM with 10% FBS and grown overnight. The cultured cells (approximately 1×10^7) were incubated with protease inhibitors and 0.1% BSA for 30 min at room temperature (25° C.). The cells were then washed twice (5 ml) with ice-cold buffer (DMEM+20 mM HEPES, pH 6.7) and incubated with 5 ml of buffer on ice for at least 10 min, in the presence of protease inhibitors, and 0.1% BSA. […] The dishes were then frozen by placement on crushed dry ice. The frozen sample was irradiated under nitrogen for 2 h using a focused HBO 100-watt mercury short arc lamp through an optical filter to eliminate light below 310 nm. A second filter removed infrared wavelengths (>900 nm) to minimize sample heating during photolysis (Li et al., 1995a). Alternatively, the sample can be irradiated in a commerical photoreactor at 3500 Å.
# After photolysis, the sample was thawed and any remaining attached cells were scraped from the bottom of the plate. The sample was transferred to microfuge tubes and centrifuged at 16,000 g for 30 min. The pelleted cells were hypotonically lysed by resuspending in 0.3 ml of 5 mM Tris-HCl, pH 8.0, for 15 min at room temperature. Then the samples were homogenized and centrifuged at 500 g for 15 min to remove debris. […]
# [4] = Retention of radioiodine during photolysis (model benzophenone); format: physicochemical; settings: receptor photolabeling conditions, twice the photolysis time
smiles,measurement,setting,value
"CSCC[C@H](NC(=O)[C@H](CC(C)C)NC(=O)CNC(=O)[C@H](Cc1ccc(C(=O)c2ccc(O)cc2)cc1)NC(=O)[C@H](Cc1ccccc1)NC(=O)[C@H](CCC(N)=O)NC(=O)[C@H](CCC(N)=O)NC(=O)[C@@H]1CCCN1C(=O)[C@H](CCCCN)NC(=O)[C@@H]1CCCN1C(=O)[C@@H](N)CCCNC(=N)N)C(N)=O [L-HBPA^8 -SP, ArgProLysProGlnGlnPhe(L-HBPA)GlyLeuMet-NH2]",IC50,[1],52 ± 8 pM
same,affinity for anti-SP antiserum (in words),[1]; compared with native SP or other diastereomer,binds to the antibody with a higher affinity
same,"activity with both a SP specific antibody and SPR, antibody part (in words)",[1]; first HPLC peak versus second,more active than the second
same,"activity with both a SP specific antibody and SPR, receptor part (in words)",SPR in P388D1 cells [2]; first HPLC peak versus second,more active than the second
same,affinity / specificity for SPR (in words),"SPR in P388D1 cells [2]; murine SP receptor, P388D1 cells",bind with high affinity and specificity to SPR; also recorded: a specific as well as a high affinity ligand for the receptor
"CSCC[C@H](NC(=O)[C@H](CC(C)C)NC(=O)CNC(=O)[C@H](Cc1ccccc1)NC(=O)[C@H](Cc1ccccc1)NC(=O)[C@H](CCC(N)=O)NC(=O)[C@H](CCC(N)=O)NC(=O)[C@@H]1CCCN1C(=O)[C@H](CCCCN)NC(=O)[C@@H]1CCCN1C(=O)[C@@H](N)CCCNC(=N)N)C(N)=O [SP, reference compound]",IC50,[1],71 ± 6 pM
"COc1ccccc1CN[C@H]1C2CCN(CC2)[C@H]1C(c1ccccc1)c1ccccc1 [CP-96,345, (2S, 3S)-cis-2-(diphenylmethyl)-N-[(2-methoxyphenyl)-methyl]-1-aza-bicyclo[2.2.2]octan-3-amine]",inhibition of photolabeling by [^125 I]HBPA^8 -SP,SPR in P388D1 cells [3],completely inhibited
O=C(c1ccccc1)c1ccc(O)c([125I])c1 [[^125 I]-3-iodo-4-hydroxybenzophenone],radioiodine remaining incorporated in the starting material after photolysis,[4],greater than 98%
CSCC[C@H](NC(=O)[C@H](CC(C)C)NC(=O)CNC(=O)[C@@H](Cc1ccc(C(=O)c2ccc(O)cc2)cc1)NC(=O)[C@H](Cc1ccccc1)NC(=O)[C@H](CCC(N)=O)NC(=O)[C@H](CCC(N)=O)NC(=O)[C@@H]1CCCN1C(=O)[C@H](CCCCN)NC(=O)[C@@H]1CCCN1C(=O)[C@@H](N)CCCNC(=N)N)C(N)=O [D-HBPA^8 -SP],IC50,[1],390 ± 40 pM
same,IC50,"SPR in P388D1 cells [2]; tracer 25 pM [^125 I]BHSP, 2 h on ice, mean±standard deviation of ≥4 experiments, read-out: IC50 for displacement of [^125 I]BHSP",1500 ± 340 pM
